# Source: publication PMC12670400, “LEKTI-Grafted Sunflower Trypsin Inhibitor: A Potential Therapeutic for Skin Diseases” (Journal of Medicinal Chemistry, 2025)
# Bridge positions count the residues as written; N and C are the ends. Peptide text beside a SMILES is read from it.
# What was measured:
# KLK5 = target: T1, KLK5 (Homo sapiens, UniProt Q9Y337); experiment: Protease activity assay: inhibition of recombinant KLK5 (Boc-VPR-AMC substrate); format: biochemical; conditions: ratio of IC50 values
# T1 construct: purchased R&D Systems 1108-SE
# T1 sequence (Q9Y337 23-293): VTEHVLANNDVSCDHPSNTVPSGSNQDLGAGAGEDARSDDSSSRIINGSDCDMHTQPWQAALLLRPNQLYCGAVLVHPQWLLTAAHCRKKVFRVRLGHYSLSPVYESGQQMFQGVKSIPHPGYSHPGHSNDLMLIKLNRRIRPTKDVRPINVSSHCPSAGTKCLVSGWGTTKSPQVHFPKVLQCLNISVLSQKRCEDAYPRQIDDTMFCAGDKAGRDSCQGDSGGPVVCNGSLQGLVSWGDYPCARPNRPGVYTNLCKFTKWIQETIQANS
# Description: Inhibitory activity against KLK5 was evaluated using the fluorogenic substrate Boc-VPR-AMC for KLK5 (Table ). […] The P1–P1′ reactive site (Arg5 to Ser6) is critical for inhibitor binding, with the P1′ position contributing up to 50% of the total association energy. , The conserved serine at P1′ in Bowman-Birk inhibitors (BBIs) is essential for function. […] Preservation of serine in the P1′ position restored inhibitory activity seen in 5 and 6. Preserving the native serine restored efficacy to the nanomolar range (5: 31 ± 7 nM; 6: 114 ± 11 nM).
# Methods for biological experiment
# SFTI analogues were created by individual amino acid substitutions in PYMOL (Python Molecular Graphics System) using the existing solution NMR structure of native SFTI - 1 (1JBL) found in the RCSB (Research Collaboratory for Structural Bioinformatics) database. Residues of 2 were mutated as follows: L5R, I10H, and F12W with conserved SFTI-1 backbone structure. Other SFTI based analogues were further modified using PYMOL. Currently, there are no SFTI-1 and Kallikrein 5 co-crystal structures found in the RCSB database. Superimposing the existing crystal structure of SFTI-1 and Trypsin complex (4XOJ) with Kallikrein 5 crystal structure (2PSX) was performed with PYMOL. Ab-initio docking between KLK5 and 2 were performed with HADDOCK 2.4 1, 2, with binding active site parameter set to Arg2, Cys3, Thr4, Arg5, Ser6 for 2 and Ser195, His57, and Asp102 for KLK5 catalytic triad. PRODIGY 3-5, set at 25 °C, was used to predict dissociation constant and binding interactions of docked clusters. Structural visualization and alignment were performed with PYMOL 6, and comparative sequence analysis was performed with MEGA11 7.
# A fluorescence spectrometer using SpectraMax® i3x plate reader (Molecular Devices, United States) was used to measure the relative fluorescence unit (RFU) on a 96-well black microplate (Grenier Bio-one, cat no. 655074). The wavelengths were set to 360/460 nm (excitation/emission) for the substrate Boc-VPR-AMC (Bachem AG, cat no. 4003460) and 320/405nm for the substrate Mca-RPKPVE-Nval-WRK(Dnp)-NH2 Fluorogenic MMP Substrate (R&D Systems Biotechne, cat no.ES002). The Boc-VPR-AMC stock solution was prepared by dissolving the solid form in dimethyl sulfoxide to 100 mM. Mca-RPKPVE-Nval-WRK(Dnp)-NH2 fluorogenic MMP Substrate is supplied as stock solution at 10.0 mg/mL in dimethyl sulfoxide. Boc-VPR-AMC was used as a substrate for KLK5, 8 and 14. Mca-RPKPVE-Nval-WRK(Dnp)-NH2 was used as a substrate for KLK7. The ligand-only solution serves as a negative control (minimum RFU, 100% inhibition), and enzyme-only was served as positive (maximum RFU, 0% inhibition). The activities of proteases were measured and readout against the standard curve made in serial dilutions of tested recombinant KLKs, ranging from 0nM to 60nM. Each assay was done in triplicates and repeated at least for three times […]
# Assessment of analogue mediated inhibition of KLK5, KLK7, KLK8, and KLK14 […]
# Recombinant KLK5 (R&D Systems, cat no. 1108-SE) was diluted to a final concentration of 10 nM in 1X PBS (pH 8.0). KLK5 was pre -incubated on ice for 1 hour with serial dilutions of SFTI-derived analogues to assess inhibitory activity. After incubation, 20 µL of each mixture was transferred to we lls of a 96-well microplate in triplicates. The enzymatic reaction was initiated by adding 100 µL of Boc -VPR-AMC substrate (final concentration 100 µM) to each well. Fluorescence (RFU) was measured using a SpectraMax® i3x plate reader with chamber temperature maintained at 37°C. Readings were started at 0 minutes (baseline) and another […]
# Recombinant KLK7 (R&D Systems , cat no. 2624-SE) and KLK14 (R&D Systems, cat no. 2664-SE) were activated by adding 1 mM CaCl ₂ 0.05% v/v Brij-35 (Sigma, cat no. […]
# incubated at 37°C for 1 hour. Reactions were stopped by adding EDTA to a final concentration of 50 mM (Sigma, cat no. EDS-100G) KLK8 (catalytic domain only; R&D Systems, cat no. 2025-SE-010) was activated separately with 11 nM lysyl […]
# NS keratinocytes = experiment: Transepithelial electrical resistance (TEER) assay, NS keratinocytes; format: cell-based, human; conditions: 1 μM, 9 days, p < 0.05, n = 18
# From the text: (§1) KLK5 regulates epidermal barrier homeostasis by targeting corneodesmosomal proteins involved in cell–cell adhesion, including desmoglein-1 (DSG1), desmocollin-1 (DSC1), and corneodesmosin (CDSN). Dysregulated KLK5 activity can accelerate the degradation of these adhesion molecules, leading to impaired corneocyte cohesion and disruption of the epithelial barrier. To assess whether control of KLK5 activity by lead 7 could improve barrier integrity, the resistance of epidermal sheets generated using NS and healthy donor keratinocytes was measured using a transepithelial electrical resistance (TEER) assay. Keratinocytes from NS keratinocyte and three healthy donors were seeded in 6-well plates and cultured in the medium with 1 μM of lead 7 or without. The medium was replaced every 3 days with fresh lead 7 added in the treated groups. TEER measurements were performed every other day, and cultures were maintained until TEER values reached a plateau (9 days).
# (§2) Transepithelial Electrical Resistance (TEER) assay […]
# (§3) Transepithelial electrical resistance (TEER) values in ohms (Ω) were measured using the EVOM™ Manual Resistance Meter (World Precision Instruments, cat no. EVM-MT-03-02). Background resistance was first recorded using inserts containing only medium (without cells). […]
# (§4) One-way ANOVA was used for KLK5 activity study. […] TEER study data was analysed using the Wilcoxon […]
# [1] = tested on: healthy donor keratinocytes; experiment: Transepithelial electrical resistance (TEER) assay, healthy donor keratinocytes; format: cell-based, human; conditions: 1 μM, 9 days, p > 0.05, n = 54
# From the text: as §1, §2, §3, §4
smiles,measurement,setting,value
C[C@@H](O)[C@@H]1NC(=O)[C@@H]2CSSC[C@H](NC(=O)[C@H](CCC(=O)O)NC(=O)[C@@H]3CCCN3C(=O)[C@@H]3CCCN3C(=O)[C@H](CC(N)=O)NC(=O)[C@H](CO)NC(=O)[C@H](CCCNC(=N)N)NC1=O)C(=O)N[C@@H](Cc1c[nH]c3ccccc13)C(=O)N1CCC[C@H]1C(=O)N[C@@H](CC(N)=O)C(=O)NCC(=O)N[C@@H](Cc1ccccc1)C(=O)N2 [compound 7] (cyclo(GFCTRSNPPECWPN); disulfide 3-11),increase in KLK5 inhibitory potency (IC50) compared to 2,KLK5,4 fold
same,increase in KLK5 inhibitory potency (IC50) relative to 1,KLK5,16 fold
same,"TEER, treated versus untreated NS keratinocytes",NS keratinocytes,obvious increase in TEER values
same,"TEER, treated versus untreated healthy donor keratinocytes",[1],no differences
